Tests used:
IL-1β = IL-1β secretion of neutrophils pre-treated with CM of SCP28 cancer cells (ELISA); format: cell-based; conditions: human neutrophils pre-treated with CM of SCP28 with CTSC overexpressed; FIG. 7H
Experimental: ELISA kits were used to assay the levels of human IL-1β (88-7621-88, ThermoFisher), mouse IL-1β (432604, Biolegend), mouse IL6 (88-7064-88, ThermoFisher), mouse CCL3 (88-56013-88, ThermoFisher) in cell culture supernatants or sera according to the manufacturer's instruction. Briefly, 96-well MaxiSorp™ ELISA Plates (44-2404, ThermoFisher) was coated with capture antibody overnight at 4° C. in coating buffer (15 mM of Na2CO3, 35 mM of NaHCO3, at pH 9.6). After three washes in PBS, the wells were blocked with 5% BSA in PBS for 45 min at room temperature. Then, 100 μl of cell culture supernatants or sera and standard samples were added into the wells and incubated for 2 h at room temperature, and the plates were washed three times with washing buffer (1% BSA, 0.05% Tween-20 in PBS). Next, biotin-conjugated detection antibody in 2.5% BSA was added into the wells and incubated for 2 h at room temperature. After three washes with washing buffer, HRP-streptavidin was incubated for 45 min at room temperature. Then, signals were detected using TMB solution and read at 450 nm.

neutrophils = assay: Formation of NETs in neutrophils stimulated by cancer cell conditioned medium (immunofluorescence, MPO and Ci-H3); format: cell-based, mice; conditions: CM of lung-/liver-metastatic breast cancer and bone-metastatic lung cancer cells, with or without brensocatib; FIGS. 11D, F, I
Experimental: To isolate neutrophil from bone marrow, bone marrow cells from 8 to 12-weeks-old BALB/c mice were harvested in sterile Hank's buffered salt solution (HBSS) without Ca^2+/Mg^2+ (14185052, Invitrogen), and laid on top of a 2-layer Percoll (17089102, GE Healthcare) gradient (72% and 63.5% in HBSS), followed by centrifugation at 1,200 g for 30 min at 25° C. Neutrophils enriched in the interface of 63.5%-72% fractions were confirmed to be of >95% purity by flow cytometry analysis. To isolate neutrophils from peripheral blood of mice, whole blood was collected via cardiac puncture (1 ml per animal) and suspended in HBSS (2 ml per animal) with 15 mM EDTA. After centrifugation (400 g, 10 min, 4° C.), white cells were resuspended in 2 ml HBSS with 2 mM EDTA. […] The purity of the isolated neutrophils was determined by May-Grunwald-Giemsa staining (40751ES02, Yea-sen). […]
To assess NET formation, neutrophils (2.5×10^5 cells) were seeded on coverslips coated with poly-L-lysine (P4707, Sigma) in 24-well plates for 30 min before adding 10% cancer cell CM, Sivelestat (10 μM), PMA (20 nM, Sigma), Cl-amidine (100 μM, Selleck) and/or DNase I (1 μg/ml). […] NET area quantification was performed using the DANA method (Rebernick et al., “DNA area and NETosis analysis (DANA): a high-throughput method to quantify neutrophil extracellular traps in fluorescent microscope images,” Biol. Proced. Online 20:7 (2018)). […]

[1] = system: pancreatic cancer cells KP4; assay: NET-promoted tumor sphere formation, pancreatic cancer; format: cell-based; conditions: neutrophil medium, CM with or without brensocatib, FIG. 11O
Experimental: To test the therapeutic effects of brensocatib in different cancer types in vitro, the ability of brensocatib to inhibit NET-promoted tumor sphere formation is investigated. The neutrophils are cultured with conditioned medium from tumor cells of colon cancer, liver cancer, lung cancer, gastric cancer and pancreatic cancer with or without brensocatib treatment to activate NETosis, and then the neutrophil medium was used in tumor sphere formation of these cancer cells to analyze the effect of neutrophil medium to facilitate tumor cell growth. The amount of tumorsphere in each sample is then determined by imaging.

liver cancer cells HUH7 = assay: Mouse xenograft, liver tumor cells by spleen injection; format: in vivo; conditions: nude mice
Experimental: A series of mouse xenograft studies are conducted by injecting liver and pancreatic tumor cells into nude mice by spleen injection. Then the mice are treated by brensocatib, and the growth of the tumors in liver is observed.

## CC(C)(C)C(=O)Oc1ccc(S(=O)(=O)Nc2ccccc2C(=O)NCC(=O)O)cc1 [Silvelestat]
IL-1β
  IL-1β levels (secretion) of neutrophils: reduces

## Cn1c(=O)oc2ccc(-c3ccc(C[C@@H](C#N)NC(=O)[C@@H]4CNCCCO4)cc3)cc21 [brensocatib, (2S)—N-{(1S)-1-cyano-2-[4-(3-methyl-2-oxo-2,3-dihydro-1,3-benzoxazol-5-yl)phenyl]ethyl}-1,4-oxazepane-2-carboxamide]
neutrophils
  formation of NETs: significantly reduced
[1]
  NET-promoted tumor sphere formation (in vitro tumor growth): inhibit in vitro tumor growth
Liver cancer cells HUH7; spleen injection of HUH7, FIG. 12B
  formation of liver surface nodules: suppresses
Liver cancer cells HUH7; spleen injection, FIG. 12A
  tumor growth of liver cancer cells HUH7 in liver: significantly inhibits tumor growth

— patent US12697328B2, “Methods for treating metastasis with cathepsin C inhibitors” (Shanghai Institute of Nutrition and Health, Chinese Academy …, priority 2020, dated 2026)
